Laboratory results published in PMC7576608, “Mechanisms of telomerase inhibition by oxidized and therapeutic dNTPs” (Nature Communications, 2020).
Where “and” joins values, the source holds several entries; their conditions need not be identical. Equal entries are not always repeated.

Assays:
telomerase [1] = biological target: T1, telomerase (Homo sapiens, UniProt O14746); test: Telomerase extension of 32P-end labeled primers with a single dNTP (percent primer extension); type: biochemical; parameters: made in house; anti-FLAG immunopurification, eluted with 3xFLAG peptide; conditions: for Percent Primer Extension: 50 μM single dNTP
Method: A chain terminating mechanism of inhibition requires that the enzyme adds the modified dNTP to a growing chain, which then blocks further synthesis. […] To test whether telomerase can incorporate other modified dNTPs, and whether the incorporation is chain terminating and/or mutagenic, we conducted direct extension assays in which we radiolabeled the primer and added increasing concentrations (5, 50, and 500 μM) of a single dNTP (Supplementary Figs. 3, 5, 6, and 7). Since modified dNTPs may prefer mispairing, we tested various primers in which the first template base was either rA3, rC1, or rU5 (primer 1, primer 2, and primer 3, respectively), and compared the percent primer extension for each dNTP at the middle 50 μM concentration (Fig. 3). Primers 1 and 2 initiate synthesis at consecutive rA3rA4 or rC1rC2 template bases, respectively, so we could examine both incorporation and extension to the next base. However, the telomerase template lacks tandem rU residues.
Fig. 3 Telomerase insertion of modified dNTPs. Telomerase reactions were conducted with 5 nM ^32P-end labeled primer a Primer 1 (TTAGGG)3, b Primer 2 (GGTTAG)3, or c Primer 3 (AGGGTT)3. Reactions contained cellular-concentration dNTPs (lane 1) or 50 μM of indicated natural dNTP (blue, lanes 2–5), oxidized dNTP (red, lanes 6–8), or therapeutic dNTP (green, lanes 9–11). Products were separated on denaturing gels. […] Letters on the right indicate the template base; P indicates unextended 18-mer primer. Graphs represent the percent of total primers extended. Images are representative of, and data are shown as mean ± s.d. from, three independent experiments. Source data are provided as a Source Data file.
(§1) An equal volume of loading buffer (94% formamide, 0.1× TBE, 0.1% bromophenol blue, 0.1% xylene cyanol) was added to the reaction eluent. The samples were heat denatured for 10 min at 100 °C and loaded onto a 14% denaturing acrylamide gel (7 M urea, 1× TBE) and electrophoresed for 90 min at constant 38 W. Samples were imaged using a Typhoon phosphorimager (GE Healthcare). Percent primer extension was calculated with ImageQuant TL 8.2 by measuring the intensity of each product band and dividing by the total radioactivity in the lane or total products, as indicated in the figure legends.
Telomerase reactions were conducted with 5 nM 32P-end labeled primer (a) Primer 1 (TTAGGG)3, (b) Primer 2 (GGTTAG)3, or (c and d) Primer 3 […]
(d) reactions contained 3 µg/µl RNase A. Products were separated on denaturing gels. Letters on the right indicate the template base; P indicates unextended 18-mer primer. Graphs represent the percent of total primers extended for the reactions in panels a – c from one experiment. Panel d is a representative image from three independent experiments. Source data are provided as a Source Data file. […]
Supplementary Fig 4. Time course reactions with telomerase or pol β. (a, b) Telomerase reactions were conducted with 5 nM 32P-end labeled primer (a) Primer 4 (GTTAGG)3 or (b) Primer 2 (GGTTAG)3.
Products were separated on denaturing gels. Letters on the right indicate the template base; P indicates […]
unextended 18-mer primer. […]

telomerase [2] = biological target: T1, telomerase; test: Telomerase repeat processivity IC50: modified dNTP titrated into reactions with all four natural dNTPs; type: biochemical; parameters: made in house; anti-FLAG immunopurification, eluted with 3xFLAG peptide; conditions: for Slope (line fit of ln(100-%LB) vs # telomere repeats) / YIntercept (line fit of ln(100-%LB) vs # telomere repeats): replicates n1, n2; for ln(100-%LB): n1, n2
Excerpt: In order to better understand the ability of modified dNTPs to compete with natural dNTPs for telomerase utilization, we added modified dNTPs to reactions containing all four natural dNTPs. […] The calculated IC50 determines the concentration required to reduce repeat processivity in the bulk reactions by half. However, it is important to note that bulk experiments cannot distinguish effects on individual telomeres, since extended telomeres mask unextended telomeres. Incorporation of a chain terminator during any step will terminate extension of the affected telomere, and just five critically short telomeres are sufficient to trigger senescence. Therefore, repeat processivity IC50 values are not necessarily an indicator of the inhibitory potency, but provide information on selectivity for modified dNTPs compared to natural dNTPs. […] The ability to purify sufficient quantities of tcTERT enables characterization of the catalytic nucleotide addition by pre-steady-state single turnover kinetics using a defined DNA–RNA primer–template substrate. The catalytic efficiency of incorporating a single dNTP is measured by dividing the observed nucleotide incorporation rate constant, kpol, by the equilibrium dissociation constant for dNTP binding to the tcTERT–primer–template complex (Kd)[44].
as §1, with “The reactions were started by the addition of 3 μl of immunopurified telomerase eluent, incubated at 37 °C for 1 h, then terminated with 2 μl of […] and heat inactivated at 65 °C for 20 min. An” for “An”
The processivity was calculated as described[40],[67]. Repeat processivity from the direct telomerase extension assays was calculated as R1/2 (equivalent to the half-time for decay in an exponential time course), which represents the median length of DNA product formed, expressed in terms of number of telomere repeats. First, the total volume counts for each product band extend by one or more telomere repeats were obtained using Image Quant TL. The volume counts were then normalized by dividing by the number of radiolabeled guanosines incorporated into the extended products based on the number of repeats added, termed corrected volume (corr vol). The “percent left behind” (%LB) was calculated for each product band by summing the counts for that product band and for every product band below (shorter products), divided by the total counts for the lane, and then multiplied by 100. The natural log of (100−%LB) was calculated and then plotted vs. repeat number for each product length. A linear regression line was fit to the data to determine the slope of the line. The R1/2 value was calculated by dividing −ln(2) by the slope of each fitted line (R1/2 = −ln(2)/slope).
Supplementary Fig 8. IC50 values for telomerase processivity inhibition. Telomerase reactions were conducted with cellular relevant concentrations of all four natural dNTPs and increasing concentrations of the modified dNTP analog from 0 to 10,000 μM to calculate. (a) The natural log of (100-%LB) was plotted vs repeat number. A straight line was fit to the data and the R1/2 value was calculated by dividing –ln(2) by the slope of each line. Plots shown from one experiment are […]

T1 sequence (O14746 whole entry): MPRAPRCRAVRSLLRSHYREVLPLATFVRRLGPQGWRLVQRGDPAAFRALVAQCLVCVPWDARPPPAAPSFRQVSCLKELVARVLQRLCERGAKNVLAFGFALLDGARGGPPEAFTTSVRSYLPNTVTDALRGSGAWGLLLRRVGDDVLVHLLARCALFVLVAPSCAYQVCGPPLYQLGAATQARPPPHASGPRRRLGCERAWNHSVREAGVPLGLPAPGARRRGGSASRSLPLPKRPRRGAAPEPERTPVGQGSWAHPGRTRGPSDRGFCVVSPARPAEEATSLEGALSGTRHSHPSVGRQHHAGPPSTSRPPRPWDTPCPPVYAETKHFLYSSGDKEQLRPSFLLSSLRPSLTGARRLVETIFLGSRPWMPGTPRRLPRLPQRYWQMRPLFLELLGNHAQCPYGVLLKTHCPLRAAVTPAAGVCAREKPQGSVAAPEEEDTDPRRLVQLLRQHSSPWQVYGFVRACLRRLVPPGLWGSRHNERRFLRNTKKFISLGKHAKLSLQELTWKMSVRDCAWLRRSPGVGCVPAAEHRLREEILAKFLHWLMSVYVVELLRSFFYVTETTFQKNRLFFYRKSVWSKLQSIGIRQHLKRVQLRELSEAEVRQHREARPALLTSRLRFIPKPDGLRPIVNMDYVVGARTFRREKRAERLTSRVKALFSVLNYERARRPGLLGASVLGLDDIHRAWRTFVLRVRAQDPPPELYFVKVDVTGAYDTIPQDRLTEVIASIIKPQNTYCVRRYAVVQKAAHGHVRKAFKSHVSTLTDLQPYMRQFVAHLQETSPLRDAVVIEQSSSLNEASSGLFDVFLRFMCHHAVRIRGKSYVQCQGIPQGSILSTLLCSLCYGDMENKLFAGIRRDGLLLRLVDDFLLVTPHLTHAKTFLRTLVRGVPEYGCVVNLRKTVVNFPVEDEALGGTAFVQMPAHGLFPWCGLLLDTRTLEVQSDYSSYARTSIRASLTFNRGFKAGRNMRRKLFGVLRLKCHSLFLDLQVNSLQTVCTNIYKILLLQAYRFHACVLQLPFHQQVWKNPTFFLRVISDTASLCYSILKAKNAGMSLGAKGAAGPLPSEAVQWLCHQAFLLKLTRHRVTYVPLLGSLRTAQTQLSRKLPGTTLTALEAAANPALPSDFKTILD

SMILES: Nc1ccn([C@H]2C[C@H](O)[C@@H](COP(=O)(O)OP(=O)(O)OP(=O)(O)O)O2)c(=O)n1 [dCTP]
- Percent Primer Extension (telomerase [1]; Primer 1 (TTAGGG)3, first template base rA3, Mean of three experiments): 5.85%
- Percent Primer Extension (telomerase [1]; Primer 1 (TTAGGG)3, first template base rA3, single experiments n1-n3, listed as dC): 5.75% and 3.98% and 7.81%
- % Primer Extension (telomerase [1]; Primer 1, 5µM dNTP): 4.15%
- % Primer Extension (telomerase [1]; Primer 1, 50µM dNTP): 7.81%
- % Primer Extension (telomerase [1]; Primer 1, 500µM dNTP): 8.06%
- Percent Primer Extension (telomerase [1]; Primer 2 (GGTTAG)3, first template base rC1, Mean of three experiments): 0.00%
- Percent Primer Extension (telomerase [1]; Primer 2 (GGTTAG)3, first template base rC1, single experiments n1-n3): 0.00%
- % Primer Extension (telomerase [1]; Primer 2, 5µM dNTP): 0.00%
- % Primer Extension (telomerase [1]; Primer 2, 50µM dNTP): 0.00%
- % Primer Extension (telomerase [1]; Primer 2, 500µM dNTP): 0.00%
- Percent Primer Extension (telomerase [1]; Primer 3 (AGGGTT)3, first template base rU5, Mean of three experiments): 0.00%
- Percent Primer Extension (telomerase [1]; Primer 3 (AGGGTT)3, first template base rU5, single experiments n1-n3): 0.00%
- % Primer Extension (telomerase [1]; Primer 3, 5µM dNTP): 0.00%
- % Primer Extension (telomerase [1]; Primer 3, 50µM dNTP): 0.00%
- % Primer Extension (telomerase [1]; Primer 3, 500µM dNTP): 0.00%

SMILES: Cc1cn(C2CC(N=[N+]=[N-])C(COP(=O)(O)OP(=O)(O)OP(=O)(O)O)O2)c(=O)[nH]c1=O (stereo not drawn) [AZ-TP]
- Slope (line fit of ln(100-%LB) vs # telomere repeats) (telomerase [2]; 8μM): -0.35 and -0.41
- YIntercept (line fit of ln(100-%LB) vs # telomere repeats) (telomerase [2]; 8μM): 3.32 and 3.48
- ln(100-%LB) (telomerase [2]; 8μM, telomere repeat 1): 3.55 and 3.46
- ln(100-%LB) (telomerase [2]; 8μM, telomere repeat 2): 2.86 and 2.72
- ln(100-%LB) (telomerase [2]; 8μM, telomere repeat 3): 2.16 and 1.97
- ln(100-%LB) (telomerase [2]; 8μM, telomere repeat 4): 1.81 and 1.63
- ln(100-%LB) (telomerase [2]; 8μM, telomere repeat 5): 1.46 and 1.29
- ln(100-%LB) (telomerase [2]; 8μM, telomere repeat 6): 1.02 and 0.87
- ln(100-%LB) (telomerase [2]; 8μM, telomere repeat 7): 0.66 and 0.48
- ln(100-%LB) (telomerase [2]; 8μM, telomere repeat 8): 0.32 and 0.21
- Slope (line fit of ln(100-%LB) vs # telomere repeats) (telomerase [2]; 32μM): -0.51 and -0.43
- YIntercept (line fit of ln(100-%LB) vs # telomere repeats) (telomerase [2]; 32μM): 3.76 and 3.36
- ln(100-%LB) (telomerase [2]; 32μM, telomere repeat 1): 3.48 and 3.40
- ln(100-%LB) (telomerase [2]; 32μM, telomere repeat 2): 2.72 and 2.60
- ln(100-%LB) (telomerase [2]; 32μM, telomere repeat 3): 1.91 and 1.78
- ln(100-%LB) (telomerase [2]; 32μM, telomere repeat 4): 1.53 and 1.42
- ln(100-%LB) (telomerase [2]; 32μM, telomere repeat 5): 1.15 and 1.06
- ln(100-%LB) (telomerase [2]; 32μM, telomere repeat 6): 0.66
- ln(100-%LB) (telomerase [2]; 32μM, telomere repeat 7): 0.23 and 0.18
- Slope (line fit of ln(100-%LB) vs # telomere repeats) (telomerase [2]; 500μM): -1.08 and -0.93
- YIntercept (line fit of ln(100-%LB) vs # telomere repeats) (telomerase [2]; 500μM): 4.06 and 3.77
- ln(100-%LB) (telomerase [2]; 500μM, telomere repeat 1): 3.07 and 3.05
- ln(100-%LB) (telomerase [2]; 500μM, telomere repeat 2): 1.89 and 1.90
- ln(100-%LB) (telomerase [2]; 500μM, telomere repeat 3): 0.66 and 0.65
- Slope (line fit of ln(100-%LB) vs # telomere repeats) (telomerase [2]; 1000μM): -1.14 and -1.23
- YIntercept (line fit of ln(100-%LB) vs # telomere repeats) (telomerase [2]; 1000μM): 4.20 and 4.38
- ln(100-%LB) (telomerase [2]; 1000μM, telomere repeat 1): 3.08 and 3.19
- ln(100-%LB) (telomerase [2]; 1000μM, telomere repeat 2): 1.90 and 1.97
- ln(100-%LB) (telomerase [2]; 1000μM, telomere repeat 3): 0.69 and 0.55
- Slope (line fit of ln(100-%LB) vs # telomere repeats) (telomerase [2]; 2000μM): -1.39 and -1.63
- YIntercept (line fit of ln(100-%LB) vs # telomere repeats) (telomerase [2]; 2000μM): 4.11 and 4.80
- ln(100-%LB) (telomerase [2]; 2000μM, telomere repeat 1): 2.72 and 3.17
- ln(100-%LB) (telomerase [2]; 2000μM, telomere repeat 2): 1.32 and 1.54

SMILES: Cc1cn([C@H]2C[C@H](N=[N+]=[N-])[C@@H](CO)O2)c(=O)[nH]c1=O [AZT]
- % Primer Extension (telomerase [1]; Primer 1, 5µM dNTP): 6.28%
- % Primer Extension (telomerase [1]; Primer 1, 50µM dNTP): 12.17%
- % Primer Extension (telomerase [1]; Primer 1, 500µM dNTP): 12.98%
- % Primer Extension (telomerase [1]; Primer 2, 5µM dNTP): 0%
- % Primer Extension (telomerase [1]; Primer 2, 50µM dNTP): 0%
- % Primer Extension (telomerase [1]; Primer 2, 500µM dNTP): 0%
- % Primer Extension (telomerase [1]; Primer 3, 5µM dNTP): 0%
- % Primer Extension (telomerase [1]; Primer 3, 50µM dNTP): 3.43%
- % Primer Extension (telomerase [1]; Primer 3, 500µM dNTP): 4.38%
